Where a SMILES comes first, the peptide text is derived from it. Some results are limits rather than exact numbers.

The text below walks through data of patent US20230383291A1, “PEPTIDE-BASED TRANSDUCTION OF NON-ANIONIC POLYNUCLEOTIDE ANALOGS FOR GENE EXPRESSION MODULATION” (FELDAN BIO INC., priority 2020, published 2023).

Holding throughout (format): cell-based, Human
Series [1] has as its system Gli1 protein. Put plainly: Gli1 knock-down in DU145 cells, Western blot. The conditions noted are these: FITC+ cells vs FITC− cells; 6 μM PMO, 5 μM FSD250, 48 hours. Here is the method: DU145 cells were trypsinized and plated (500 000 cells/well) in a 24 well-dish the day prior to the experiment. […] Cells were washed once with PBS and delivery mixes were added on cells for five minutes. Then, 2 mL of RPMI-1640 containing 10% FBS was added to the mix and removed. Untreated cells were incubated with RPMI-1640 only. Cells were incubated in fresh RPMI-1640 containing 10% FBS. Forty height hours later, medium was removed and cells were washed once with PBS prior to trypsinization. Cells were harvested, collected by centrifugation, washed, and resuspended with PBS. Then, PMO-FITC positive and PMO-FITC negative cells were sorted and collected by virtue of FACS (BD FACS Aria Fusion). FITC-positive and FITC-negative cell samples were collected by centrifugation and resuspended in 50 μL protein extraction RIPA buffer (150 mM NaCl, 1% Nonidet™ P-40, 0.1% SDS, 0.5% Sodium deoxycholate, 25 mM Tris). Total protein concentrations were measured with a BCA protein assay kit. For all conditions, 10 μg of proteins were prepared at a final volume of 40 μL with 4× Laemmeli and RIPA buffer. Protein samples were then heated at 90° C. and separated through an 8% SDS-PAGE gel. Proteins were then transferred over night (25 volts) onto a […] PVDF membrane. Membranes were blocked using a 5% bovine serum albumin, Tris Buffer Saline, 0.1% Tween® 20 solution (5% BSA/TBS-T) for an hour. After blocking, the membrane was incubated for an hour with a 5% BSA/TBS-T solution containing anti alpha-Actinin (D6F6) primary antibody at a 1:1000. Alpha-Actinin protein present in the cell lysates served as loading control. Subsequently, the membranes were incubated over night with a 5% BSA/TBS-T solution containing anti-Gli1 primary antibody diluted 1:500. The membrane was then subjected to a 1-hour incubation at 1:5000 dilution of HRP-conjugated goat anti-rabbit secondary antibody 5% BSA/TBS-T solution. Chemiluminescence detection was performed using Clarity™ Western ECL Substrate and a ChemiDoc™ XRS apparatus. Gli1 and Alpha-Actinin densitometry was assessed using ImageJ™ software. […]
(Immunoblotting shows a protein as a band on a membrane.)

Series [2] concerns HeLa cells. Put plainly: PMO-FITC delivery in HeLa cells, immunofluorescence microscopy (vs Endoporter). The conditions noted are these: 10 μM PMO-FITC with shuttle agent, 5-minute incubation in RPMI. Here is the method: A PMO cargo delivery experiment in HeLa cells was performed to directly compare synthetic peptide shuttle agent-mediated PMO transduction with Endoporter-mediated intracellular PMO delivery. For shuttle agent-mediated transduction, HeLa cells were exposed to 10 μM of PMO-FITC in the presence of 2.5, 5, 7.5, or 10 μM of the second-generation shuttle agent FSD396 for 5 minutes in RPMI. For Endoporter-mediated delivery, HeLa cells were exposed to 10 μM of PMO-FITC in the presence of 2.5, 5, 7.5, or 10 μM of the commercially-available Endoporter' peptide (GeneTools, LLC) in growth medium for the manufacturer's recommended minimum incubation time of at least 24 hours. After a washing step, delivery results were compared by observing intracellular PMO-FITC fluorescence via immunofluorescence microscopy and results are shown in FIG. 11.

Series [3] relates to HeLa cells. Put plainly: PMO, PNA and siRNA transduction in HeLa cells with FSD250. The settings on record: all conditions tested, FIG. 7B. Here is the method:
Phosphorodiamidate morpholino oligomers labeled with the fluorophore FITC (PMO-FITC) were prepared at 1 mM in sterile water. HeLa cells were plated (20 000 cells/well) in a 96 well-dish the day prior to the experiment. Each delivery mix comprising a synthetic peptide shuttle agent (7.5, 10 or 20 μM) and a PMO-FITC (6 μM) was prepared and completed to 50 μL with RPMI-1640 media. Cells were washed once with PBS and the shuttle agent/PMO-FITC or PMO-FITC alone added on cells for five minutes. Then, 100 μL DMEM containing 10% FBS was added to the mix and removed. Cells were washed once with PBS and incubated in DMEM containing 10% FBS. Cells were analyzed after a 2-hour incubation by flow cytometry.
HeLa cells were transduced with 10 μM of PMO-FITC or fluorescently-labeled Peptide Nucleic Acid (PNA) (PNA TelC-Alexa 488; cat. no. F1004; PNA BIO Inc.) as generally described in the transduction protocol described in Example 1 with a few modifications. The shuttle peptide used was FSD250 (5 μM) and cells were contacted with the cargo and shuttle agent for two minutes, and cells were analyzed after a 1-hour incubation by flow cytometry.

Series [4] can be described thus: in vitro. The settings on record: human, RH-30 cells. How it is done:
(§1) Although naked DNA/RNA cargoes are shown to themselves be poor cargoes of synthetic peptide shuttle agents (Examples 3 and 9), the present Example evaluates their potential dominant negative effect in trans on shuttle agent-mediated transduction of PMO cargoes. Briefly, RH-30 cells (150,000 cells/well in 24-well dish) were contacted with a delivery mix of 6 μM of a PMO-FITC and of 5 μM of the synthetic peptide shuttle agent FSD250 for 2 minutes in RPMI, in the presence of increasing amounts of a DNA oligonucleotide or an sgRNA spiked in medium. Cells were then washed, incubated in growth medium and then collected for analysis by flow cytometry after 1 h. […] In all conditions tested, cell viability remained above 75%.
(§2) The present Example compares the PMO transduction activity of a prototypical CPD-comprising first generation shuttle agent with that of two rationally-designed second generation synthetic peptide shuttle agents. Briefly, RH-30 cells (20,000 cells/well in 96-well dish) were contacted with a delivery mix of 6 μM of a PMO-FITC and increasing concentrations of the first-generation shuttle agent His-CM18-PTD4 or two CPD-lacking second generation synthetic peptide shuttle agents (FSD250 and FSD10) for 2 minutes in RPMI. Cells were washed, incubated in complete medium and then collected for analysis by flow cytometry after 1 h. […]

The test system of series [5] is HeLa cells. Put plainly: Propidium iodide (PI) transduction screening in HeLa cells. The settings on record: negative control peptide tested in parallel; data not shown. Here is the method: HeLa cells were plated (20 000 cells/well) in a 96 well-dish the day prior to the experiment. Each delivery mix comprising a synthetic peptide shuttle agent (10 μM) and the propidium iodide (PI) (10 μg/mL) or the GFP-NLS (10 μM) were prepared and completed to 50 μL with phosphate-buffered saline (PBS) for PI or with RPMI-1640 medium for GFP-NLS. Cells were washed once and the shuttle agent/PI or shuttle agent/GFP-NLS added on cells for one minute (PI) or 5 minutes (GFP-NLS). Then 100 μL DMEM containing 10% FBS was added to the mix and removed. Cells were washed once with PBS and incubated in DMEM containing 10% FBS. Cells were analyzed after 2-hour incubation by flow cytometry. Cells were analyzed […]. […]
Due to the large number of peptides screened, negative controls were performed in parallel for each experimental batch and included a “no treatment” (NT) control in which the cells were not exposed to shuttle peptide or cargo, as well as a “cargo alone” control in which cells were exposed to the cargo in the absence of shuttle agent. […] Mean PI or GFP-NLS delivery score was calculated by multiplying the mean fluorescence intensity (of at least duplicate samples) measured for the viable PI+ or GFP+ cells by the mean percentage of viable PI+ or GFP+ cells, divided by 100,000 for GFP delivery or by 10,000 for PI delivery. […]

Series [6] has as its system RH-30 cells. In words: in vitro. The settings on record: 6 μM PMO-FITC, increasing shuttle concentrations, 2 minutes. Here is the method:
as §1, §2

As for “PMO-Wnt1: antisense PMO molecule designed to knock-down expression of the Wnt1 protein (antisense GCAACAGCGCCCAGAGCCCCATG; all phosphorodiamidate morpholino (PMO))”, the Gli1 protein expression result in series [1] was “knocked-down”.

As for “FSD396: second-generation shuttle agent (KLKLAKLLLKALKKLGGSGGGSQAKAQAKQAK; FSD396)”, the “intracellular delivery of PMO-FITC” value in series [2] is reported as “robust intracellular delivery”.

As to `CC(C)C[C@H](NC(=O)[C@H](CCCCN)NC(=O)[C@H](CC(C)C)NC(=O)[C@H](CC(C)C)NC(=O)[C@H](CCCNC(=N)N)NC(=O)[C@H](CO)NC(=O)[C@H](Cc1c[nH]c2ccccc12)NC(=O)[C@H](CC(C)C)NC(=O)[C@H](CCCCN)NC(=O)[C@H](CC(C)C)NC(=O)[C@H](CC(C)C)NC(=O)[C@H](CCCCN)NC(=O)[C@H](Cc1c[nH]c2ccccc12)NC(=O)[C@@H](N)CCCCN)C(=O)N[C@@H](Cc1c[nH]c2ccccc12)C(=O)NCC(=O)NCC(=O)N[C@@H](CO)C(=O)NCC(=O)NCC(=O)NCC(=O)N[C@@H](CO)C(=O)N[C@@H](C)C(=O)N[C@@H](CCCNC(=N)N)C(=O)N[C@@H](C)C(=O)N[C@@H](C)C(=O)N[C@@H](CCCNC(=N)N)C(=O)N[C@@H](CCC(N)=O)C(=O)N[C@@H](C)C(=O)N[C@@H](CCCNC(=N)N)C(=O)O` [FSD250] (H-KWKLLKLWSRLLKLWGGSGGGSARAARQAR-OH), the Cell viability result in series [3] is “remained high”. Moreover, the viability (in general, a read-out of living cells in per cent, often relative to untreated cells) at 2 min, 5 µM in series [4] is over 75%.

For the compound “FSD174 Scramble: negative control peptide known to have low or no GFP transduction activity (LGRSGRIKIGGWSALASRARQARGLKIWTQGRL; FSD174 Scramble)”, the “PI transduction efficiency compared to cargo alone” value in series [5] is “lower transduction efficiencies for PI”.

“FSD10: CPD-lacking second generation synthetic peptide shuttle agent (KWKLARAFARAIKKLGGSGGGSYARALRRQARTG; FSD10)”: the “PMO-FITC transduction efficiency compared to His-CM18-PTD4” value in series [6] is given as “higher transduction efficiencies”.
